# Experimental data taken from ChEMBL document CHEMBL5055641, “First Total Synthesis and Structure-Activity Relationship of Iheyamide A, an Antitrypanosomal Linear Peptide Isolated from a Dapis sp. Marine Cyanobacterium” (J Nat Prod, 2021).
# Assays:
# [1] = tested on: Trypanosoma brucei rhodesiense; assay: Antitrypanosomal activity against Trypanosoma brucei rhodesiense IL-1501 assessed as inhibition of parasitic growth incubated for 69 hrs by resazurin dye based fluorescence assay; type: functional, organism-based; settings: IL-1501, 69 h
# WI-38 = assay: Cytotoxicity against human WI-38 cells assessed as inhibition of cell proliferation incubated for 72 hrs by MTT assay; type: cell-based; settings: WI-38, 72 h
Structure (SMILES),IC50 [1] [µM],IC50 (WI-38) [µM]
CC[C@H](C)[C@@H](C(=O)N1CCC[C@@H]1C(=O)N1C(=O)C=C(OC)[C@@H]1C(C)C)N(C)C(=O)[C@@H]1CCCN1C(=O)[C@H](C(C)C)N(C)C(=O)[C@@H](Cc1ccccc1)NC(=O)[C@H](Cc1ccccc1)N(C)C,1.8,> 20
"CC[C@H](C)[C@H](NC)C(=O)N1CCCC1C(=O)N1C(=O)C=C(OC)[C@@H]1C(C)C (single isomer, unassigned)",24,> 50
COC1=CC(=O)N[C@H]1C(C)C,35,> 50
"CC[C@H](C)[C@@H](C(=O)N1CCCC1C(=O)N1C(=O)C=C(OC)[C@@H]1C(C)C)N(C)C(=O)[C@@H]1CCCN1C(=O)[C@@H](NC)C(C)C (single isomer, unassigned)",17,> 50
"COC1=CC(=O)N(C(=O)C2CCCN2)[C@H]1C(C)C (single isomer, unassigned)",33,> 50
"CC[C@H](C)[C@@H](C(=O)N1CCCC1C(=O)N1C(=O)C=C(OC)[C@@H]1C(C)C)N(C)C(=O)[C@@H]1CCCN1 (single isomer, unassigned)",15,> 50
N=C(N)c1ccc(OCCCCCOc2ccc(C(=N)N)cc2)cc1 [PENTAMIDINE],0.005,–
